Test results: patent US20160257651A1, “NOVEL COMPOUND WITH ANTIBACTERIAL ACTIVITY” (priority 2013, published 2016)
Values after ≈ are worked out from the molar mass of the structure shown. Where two headings read alike, the source gives them in different places.

How the values were obtained:
[1] = tested on: Staphylococcus aureus ATCC29213 (MSSA); assay: MIC, S. aureus categories (Test Example 3); type: cell-based; details: strain ATCC29213, MSSA
Procedure: (§1) The antibacterial activities of the compound J-131CP against Staphylococcus aureus strains belonging to the five categories of Staphylococcus aureus, i.e., MSSA, MRSA, community-acquired-infection type MRSA (CA-MRSA), VISA, and VRSA, were investigated.
(§2) The compound J-131CP and quinolones were prepared in the same manner as that of Test Example 1-1.
(§3) Cell suspensions were prepared in the same manner as that of Test Example 1-1 described in the section of measurement of MIC in Test Example 1-1, except that the strains mentioned in Table 6 were used as Staphylococcus aureus, and MICs of the compound J-131CP and quinolones as the control were determined for the strains in the same manner as that of Test Example 1-1. In Table 6, the amino acid substitution mutations in QRDR of the strains are underlined.

[2] = tested on: Staphylococcus aureus BR2 (VISA); assay: MIC, S. aureus categories (Test Example 3); type: cell-based
Procedure: as §1, §2, §3

[3] = tested on: Staphylococcus aureus KSA36 (MRSA); assay: MIC, S. aureus categories (Test Example 3); type: cell-based
Procedure: as §1, §2, §3

[4] = tested on: Staphylococcus aureus MI (VISA); assay: MIC, S. aureus categories (Test Example 3); type: cell-based
Procedure: as §1, §2, §3

[5] = tested on: Staphylococcus aureus MW2 (CA-MRSA); assay: MIC, S. aureus categories (Test Example 3); type: cell-based; details: strain MW2, CA-MRSA
Procedure: as §1, §2, §3

[6] = tested on: Staphylococcus aureus NCTC8325 (MSSA); assay: MIC, S. aureus categories (Test Example 3); type: cell-based; details: strain NCTC8325, MSSA
Procedure: as §1, §2, §3

[7] = tested on: Staphylococcus aureus USA300FPR (CA-MRSA); assay: MIC, S. aureus categories (Test Example 3); type: cell-based
Procedure: as §1, §2, §3

[8] = tested on: Staphylococcus aureus VRS1 (VRSA); assay: MIC, S. aureus categories (Test Example 3); type: cell-based
Procedure: as §1, §2, §3

[9] = tested on: Staphylococcus aureus VRS3a (VRSA); assay: MIC, S. aureus categories (Test Example 3); type: cell-based
Procedure: as §1, §2, §3

[10] = tested on: Staphylococcus aureus VRS5 (VRSA); assay: MIC, S. aureus categories (Test Example 3); type: cell-based
Procedure: as §1, §2, §3

E. faecalis 36-15747 = assay: MIC against Enterococcus bacteria; type: cell-based; details: 3615747, ParC 80Ile
Procedure: (§4) Antibacterial activities of the compound J-131CP against Enterococcus bacteria (Enterococcus faecium and Enterococcus faecalis) were examined by the following methods.
as §2
(§5) Cell suspensions were prepared in the same manner as that of Test Example 1-1 described in the section of measurement of MIC in Test Example 1-1, except that the Enterococcus bacterium strains mentioned in Table 8 were used instead of Staphylococcus aureus, and MICs of the compound J-131CP and quinolones as control were determined for the strains in the same manner as that of Test Example 1-1 described in the section of measurement of MIC in Test Example 1-1. In Table 8, the amino acid substitution mutations in QRDR of the strains are underlined.

E. faecalis NCTC12203 = assay: MIC against Enterococcus bacteria; type: cell-based; details: NCTC 12203 / VRE
Procedure: as §4, §2, §5

E. faecium NCTC12204 = assay: MIC against Enterococcus bacteria; type: cell-based; details: NCTC 12204 / VRE
Procedure: as §4, §2, §5

S. pneumoniae BCLSP37 = assay: MIC against pneumococcus, CAMHB with 5 mass % LHB; type: cell-based, Streptococcus pneumoniae; details: Streptococcus pneumoniae, BCLSP37, S. pneumoniae BCLSP37, PSSP, quinolone-resistant; ParC 79Phe, GyrA 85Lys; read-out: MIC
Procedure: (§6) The S. pneumoniae strains used for this test belong to any one of the categories of penicillin-susceptible pneumococcus (penicillin-susceptible Streptococcus pneumoniae, PSSP), penicillin-intermediate pneumococcus (penicillin-intermediate Streptococcus pneumoniae, PISP), and penicillin-resistant pneumococcus (penicillin-resistant Streptococcus pneumoniae, PRSP).
(§7) The lysed horse blood was prepared by adding sterilized water to horse sterile defibered blood (produced by Nippon Bio-Supp. Center) at a ratio of 1:1, subjecting the mixture to freezing and thawing 5 times, then centrifuging the mixture twice at 10,000 rpm for 20 minutes, and filtering the supernatant through a filter.
(§8) The S. pneumoniae strains mentioned in Table 11 were each cultured overnight at 37° C. on a blood agar medium as stationary culture. The blood agar medium was prepared by adding 5 mass % ovine sterile defibered blood (produced by Nippon Bio-Supp. Center) to a heart infusion agar medium (produced by EIKEN CHEMICAL). Each S. pneumoniae strain cultured overnight at 37° C. as stationary culture was further subcultured overnight at 37° C. on fresh blood agar medium as stationary culture. After completion of the culture, cells of each pneumococcus strain were collected with a swab, and suspended in physiological saline, and the suspension was adjusted with physiological saline to show absorbance of 0.08 to 0.13 at 625 nm as measured with an absorbance meter (produced by Amersham), and further diluted 200 times with CAMHB containing 5 mass % LHB.
(§9) In Table 11, the amino acid substitution mutations in QRDR of the strains are underlined.

S. pneumoniae KBSP11 = assay: MIC against pneumococcus, CAMHB with 5 mass % LHB; type: cell-based, Streptococcus pneumoniae; details: Streptococcus pneumoniae
Procedure: as §6, §7, §8, §9

[11] = tested on: S. aureus FDA209P (ATCC 6538P); assay: microbe, parasite or virus in culture; type: cell-based, Staphylococcus aureus; details: Staphylococcus aureus, ATCC 6538P / FDA209P / MSSA, quinolone-susceptible MSSA, ParC 80S, GyrA 84S, read-out: MIC
Procedure: (§10) Then, the cell suspension was diluted 500 times with CAMHB mentioned above.

S. aureus Mu50 = assay: microbe, parasite or virus in culture; type: cell-based, Staphylococcus aureus; details: for MIC ratio (Mu50 MIC/FDA209P MIC): MIC for S. aureus Mu50 / MIC for S. aureus FDA209P; for MIC: S. aureus Mu50, quinolone-resistant MRSA, ParC S80F, GyrA S84L
Procedure: as §10

E. faecalis NCTC12201 = assay: MIC against Enterococcus bacteria; type: cell-based; details: Enterococcus faecalis, NCTC 12201 / VRE, quinolone-susceptible
Procedure: as §4, §2, §5

E. faecium RPR10 = assay: MIC against Enterococcus bacteria; type: cell-based
Procedure: as §4, §2, §5

[12] = Staphylococcus aureus, read-out: MIC
[13] = E. faecalis NCTC12203, VRE, read-out: MIC
[14] = E. faecium NCTC12204, VRE, read-out: MIC
[15] = S. pneumoniae KBSP11, PRSP, quinolone-susceptible, read-out: MIC

Structure (SMILES)	MIC ([1]; read-out: MIC)	MIC [2]	MIC [3]	MIC [4]	MIC [6, 12]	MIC [7]	MIC [8]	MIC [9]	MIC [10]	MIC (E. faecalis 36-15747)	MIC (E. faecalis NCTC12203; [13])	MIC (E. faecium NCTC12204; [14])	MIC (S. pneumoniae BCLSP37)	MIC (S. pneumoniae KBSP11; [15])	MIC [11]	MIC ratio (Mu50 MIC/FDA209P MIC) (S. aureus Mu50)	MIC (S. aureus Mu50; Staphylococcus aureus, MRSA)	MIC [1]	MIC ([5]; Staphylococcus aureus, MRSA)	other results
O=C(O)c1cn(C2CC2)c2cc(N3CCNCC3)c(F)cc2c1=O [CIP, ciprofloxacin]	0.25 µg/mL (≈ 0.754 µM)	4 µg/mL (≈ 12.1 µM)	128 µg/mL (≈ 386 µM)	16 µg/mL (≈ 48.3 µM)	0.25 µg/mL (≈ 0.754 µM)	16 µg/mL (≈ 48.3 µM)	128 µg/mL (≈ 386 µM)	64 µg/mL (≈ 193 µM)	> 128 µg/mL	2 µg/mL (≈ 6.04 µM)	4 µg/mL (≈ 12.1 µM)	4 µg/mL (≈ 12.1 µM)	> 32 µg/mL	0.5 µg/mL (≈ 1.51 µM)						MIC [5, 12]: 0.25 µg/mL (≈ 0.754 µM)
O=c1cc(CO)c2cc(F)c(-c3ccc(O)cc3)cc2n1C1CC1 [J-131CP, 1-cyclopropyl-6-fluoro-4-(hydroxymethyl)-7-(4-hydroxyphenyl)-1,2-dihydroquinolin-2-one]	0.25 µg/mL (≈ 0.768 µM)	≤ 0.06 µg/mL	≤ 0.06 µg/mL	≤ 0.06 µg/mL		≤ 0.06 µg/mL	≤ 0.06 µg/mL	≤ 0.06 µg/mL	≤ 0.06 µg/mL	0.5 µg/mL (≈ 1.54 µM)			4 µg/mL (≈ 12.3 µM)		0.25 µg/mL (≈ 0.768 µM)	≦0.25	≤ 0.06 µg/mL	0.125 to 0.25 µg/mL (≈ 0.384 to 0.768 µM)	0.125 to 0.25 µg/mL (≈ 0.384 to 0.768 µM)	MIC [5]: 0.125 µg/mL (≈ 0.384 µM); MIC ([6]; Staphylococcus aureus): 0.125 to 0.25 µg/mL (≈ 0.384 to 0.768 µM); MIC [6]: 0.125 µg/mL (≈ 0.384 µM); MIC (E. faecalis NCTC12201): 0.5 µg/mL (≈ 1.54 µM); MIC (E. faecalis NCTC12203): 2 µg/mL (≈ 6.15 µM); MIC (E. faecium NCTC12204): 8 µg/mL (≈ 24.6 µM); MIC (E. faecium RPR10; RPR10): 4 µg/mL (≈ 12.3 µM); MIC (S. pneumoniae KBSP11; PRSP): 2 µg/mL (≈ 6.15 µM)
C[C@H]1COc2c(N3CCN(C)CC3)c(F)cc3c(=O)c(C(=O)O)cn1c23 [LVX, levofloxacin]		8 µg/mL (≈ 22.1 µM)	> 128 µg/mL	32 µg/mL (≈ 88.6 µM)	0.25 µg/mL (≈ 0.692 µM)	4 µg/mL (≈ 11.1 µM)	16 µg/mL (≈ 44.3 µM)	16 µg/mL (≈ 44.3 µM)	> 128 µg/mL	2 µg/mL (≈ 5.53 µM)	2 µg/mL (≈ 5.53 µM)	2 µg/mL (≈ 5.53 µM)	32 µg/mL (≈ 88.6 µM)	1 µg/mL (≈ 2.77 µM)	≤ 0.06 µg/mL	≧128	8 to 128 µg/mL (≈ 22.1 to 354 µM)	0.125 µg/mL (≈ 0.346 µM)	0.125 µg/mL (≈ 0.346 µM)	MIC (S. aureus Mu50): 8 µg/mL (≈ 22.1 µM); MIC (E. faecalis NCTC12201; read-out: MIC): 1 µg/mL (≈ 2.77 µM); MIC (E. faecium RPR10; E. faecium RPR10, read-out: MIC): 1 µg/mL (≈ 2.77 µM)
